Measurements published in US20040110771A1, “7-(r)-aminotriazolopyrimidines, the production thereof and use of the same for combatting phytopathogenic fungi” (priority 2000, published 2004).

What was measured:
Type in all cases: in vivo
[1] = tested on: Septoria tritici; assay: Protective activity against Septoria foliar blotch disease of wheat caused by Septoria tritici; conditions: wheat seedlings "Riband", inoculated 24 h after spraying, 2 weeks
Procedure: (§1) The active compounds were prepared separately or jointly as a 10% strength emulsion in a mixture of 70% by weight of cyclohexanone, 20% by weight of Nekanil® LN (Lutensol® AP6, wetting agent having emulsifying and dispersing action based on ethoxylated alkylphenols) and 10% by weight of Wettol® EM (nonionic emulsifier based on ethoxylated castor oil) and diluted with water to the desired concentration.
Leaves of potted wheat seedlings of the cultivar “Riband” were sprayed to runoff point with an aqueous preparation of active compound which had been prepared from a stock solution made of 10% of active compound, 85% of cyclohexanone and 5% of emulsifier. 24 hours after the spray coating had dried on, they were inoculated with an aqueous spore suspension of Septoria tritici. The suspension contained 2.0×10^6 spores/ml. The test plants were then placed in a greenhouse at 18-22° C. and a relative atmospheric humidity of close to 100%. After 2 weeks, the extent of the development of the disease was determined visually in % infection of the entire leaf area.

[2] = tested on: Blumeria graminis forma specialis tritici; assay: Activity against mildew of wheat caused by Blumeria graminis forma specialis tritici; conditions: wheat seedlings "Kanzler", dusted with spores 24 h after spraying, 7 days
Procedure: as §1
Leaves of potted wheat seedlings of the cultivar “Kanzler” were sprayed to runoff point with an aqueous preparation of active compound which had been prepared from a stock solution made of 10% of active compound, 85% of cyclohexanone and 5% of emulsifier and were dusted 24 hours after the spray coating had dried on with spores of mildew of wheat (Blumeria graminis forma specialis tritici). The test plants were then placed in a greenhouse at 20-24° C. and 60-90% relative atmospheric humidity. After 7 days, the extent of the mildew development was determined visually in % infection of the entire leaf area.

[3] = tested on: Pyrenophora teres; assay: Activity against net blotch of barley caused by Pyrenophora teres; conditions: barley seedlings "Igri", inoculated 24 h after spraying, 6 days
Procedure: as §1
Leaves of potted barley seedlings of the cultivar “Igri” were sprayed to runoff point with an aqueous preparation of active compound which had been prepared from a stock solution made of 10% of active compound, 85% of cyclohexanone and 5% of emulsifier and were inoculated 24 hours after the spray coating had dried on with an aqueous spore suspension of Pyrenophora teres, the net blotch pathogen. The test plants were then placed in a greenhouse at 20-24° C. and 95-100% relative atmospheric humidity. After 6 days, the extent of the development of the disease was determined visually in % infection of the entire leaf area.

[4] = tested on: Puccinia recondita; assay: Curative activity against brown rust of wheat caused by Puccinia recondita; conditions: curative spray 24 h after inoculation, wheat seedlings "Kanzler", 7 days
Procedure: as §1
Leaves of potted wheat seedlings of the cultivar “Kanzler” were dusted with spores of brown rust (Puccinia recondita). The pots were then placed in a chamber with high atmospheric humidity (90 to 95%) at 20-22° C. for 24 hours. During this period, the spores germinated and the germinal tubes penetrated into the leaf tissue. The following day, the infected plants were sprayed to runoff point with an aqueous preparation of active compound which had been prepared from a stock solution made of 10% of active compound, 85% of cyclohexanone and 5% of emulsifier. After the spray coating had dried on, the test plants were cultivated in a greenhouse at 20-22° C. and 65-70% relative atmospheric humidity for 7 days. The extent of the rust fungus development on the leaves was then determined.

| Compound | % infection of the leaves after application of an aqueous preparation comprising . . . ppm of active compound ([1]; 16 ppm) | % infection of the leaves after application of an aqueous preparation comprising . . . ppm of active compound ([1]; 63 ppm) | % infection of the leaves after application of an aqueous preparation comprising . . . ppm of active compound ([1]; 250 ppm) | % infection of the leaves after application of an aqueous preparation comprising . . . ppm of active compound ([2]; 63 ppm) | % infection of the leaves after application of an aqueous preparation comprising . . . ppm of active compound ([2]; 250 ppm) | % infection of the leaves after application of an aqueous preparation comprising . . . ppm of active compound ([3]; 63 ppm) | % infection of the leaves after application of an aqueous preparation comprising . . . ppm of active compound ([3]; 250 ppm) | % infection of the leaves after application of an aqueous preparation comprising . . . ppm of active compound ([4]; 16 ppm) | % infection of the leaves after application of an aqueous preparation comprising . . . ppm of active compound ([4]; 63 ppm) | % infection of the leaves after application of an aqueous preparation comprising . . . ppm of active compound ([4]; 250 ppm) | % infection of the leaves after application of an aqueous preparation comprising . . . ppm of active compound ([2]; 16 ppm) | % infection of the leaves after application of an aqueous preparation comprising . . . ppm of active compound ([3]; 16 ppm) |
| --- | --- | --- | --- | --- | --- | --- | --- | --- | --- | --- | --- | --- |
| C[C@@H](Nc1c(-c2ccccc2Cl)c(Cl)nc2ncnn12)C(C)(C)C (single isomer, unassigned) [I.-44b] | 30% | 10% | 10% | – | – | – | – | – | – | – | – | – |
| CCC(C)Nc1c(-c2c(C)cccc2F)c(Cl)nc2ncnn12 (stereo not shown) [I.-10] | – | – | – | 60% | 15% | 3% | 3% | 60% | 40% | 15% | – | – |
| CC[C@@H](C)Nc1c(-c2c(F)cc(F)cc2F)c(Cl)nc2ncnn12 [I.-13] | – | – | – | 40% | – | – | – | 3% | 0% | – | 60% | 20% |
| COc1cc(F)c(-c2c(Cl)nc3ncnn3c2N[C@H](C)C(C)(C)C)c(F)c1 [I.-18] | – | – | 30% | – | – | – | – | – | – | – | – | – |
| CC[C@@H](C)Nc1c(-c2ccc(F)cc2C)c(Cl)nc2ncnn12 [I.-22] | – | – | – | 3% | 3% | 0% | – | 30% | 5% | 3% | 5% | 7% |
| Cc1cc(F)ccc1-c1c(Cl)nc2ncnn2c1NC(C)C(C)C (stereo not shown) [I.-23] | – | – | – | 5% | 3% | – | – | 3% | 0% | 0% | 15% | 0% |
| CC(C)C(C)Nc1c(-c2ccccc2C(F)(F)F)c(Cl)nc2ncnn12 (stereo not shown) [I.-25] | 0% | 0% | 0% | – | – | – | – | – | – | – | – | – |
| CC(Nc1c(-c2ccccc2C(F)(F)F)c(Cl)nc2ncnn12)C(C)(C)C (stereo not shown) [I.-26] | 3% | 0% | 0% | – | – | – | – | – | – | – | – | – |
